ChEMBL document CHEMBL5050844 (2019)

Key:
[1] = target: T1, E3 ubiquitin-protein ligase CBL-B (Homo sapiens, UniProt Q13191); assay: Inhibition of N-terminal Avi-tagged human CBL-B (36 to 427 residues) incubated with 60 nM Src kinase for 1.5 hrs followed by incubation with fluorescently labeled UbcH5B-Ub for 1 hr and measured by TR-FRET assay; format: single protein
[2] = target: T1, E3 ubiquitin-protein ligase CBL-B; assay: Binding affinity towards N-terminal biotinylated Avi-tagged human CBL-B (36 to 427 residues) measured by surface plasmon resonance assay
[3] = Induction of anti-CD3/CD28 antibodies-stimulated human T cell activation at 4 uM assessed fold increase in IL-2 secretion measured by ELISA assay; format: functional, T cell line
[4] = Induction of anti-CD3/CD28 antibodies-stimulated human T cell activation at 1 uM assessed fold increase in IL-2 secretion measured by ELISA assay; format: functional, T cell line
[5] = Induction of anti-CD3/CD28 antibodies-stimulated human T cell activation at 0.3 uM assessed fold increase in IL-2 secretion measured by ELISA assay; format: functional, T cell line
[6] = Induction of anti-CD3 antibodies-stimulated human T cell activation at 8 uM assessed fold increase in IL-2 secretion measured by ELISA assay; format: functional, T cell line; further: reference of the scale not given here
[7] = Induction of anti-CD3 antibodies-stimulated human T cell activation at 1 uM assessed fold increase in IL-2 secretion measured by ELISA assay; format: functional, T cell line; further: reference of the scale not given here
[8] = Induction of anti-CD3/CD28 antibodies-stimulated human T cell activation at 4 uM assessed fold increase in CD25 expression measured by ELISA assay; format: functional, T cell line
[9] = Induction of anti-CD3/CD28 antibodies-stimulated human T cell activation at 1 uM assessed fold increase in CD25 expression measured by ELISA assay; format: functional, T cell line
[10] = Induction of anti-CD3/CD28 antibodies-stimulated human T cell activation at 0.3 uM assessed fold increase in CD25 expression measured by ELISA assay; format: functional, T cell line
[11] = Induction of anti-CD3 antibodies-stimulated human T cell activation at 8 uM assessed fold increase in CD25 expression measured by ELISA assay; format: functional, T cell line; further: reference of the scale not given here
[12] = Induction of anti-CD3 antibodies-stimulated human T cell activation at 1 uM assessed fold increase in CD25 expression measured by ELISA assay; format: functional, T cell line; further: reference of the scale not given here
[13] = Induction of anti-CD3 antibodies-stimulated human CD4+ T cell activation in immunocompetent mouse assessed fold increase in CD25 expression at 90 mg/kg, po administered twice a day; format: functional; further: reference of the scale not given here
[14] = Induction of anti-CD3 antibodies-stimulated human CD4+ T cell activation in immunocompetent mouse assessed fold increase in CD25 expression at 135 mg/kg, po administered twice a day; format: functional; further: reference of the scale not given here
[15] = Induction of anti-CD3 antibodies-stimulated human CD4+ T cell activation in immunocompetent mouse assessed fold increase in CD25 expression at 180 mg/kg, po administered twice a day; format: functional; further: reference of the scale not given here
[16] = Induction of anti-CD3 antibodies-stimulated human CD8+ T cell activation in immunocompetent mouse assessed fold increase in CD25 expression at 45 mg/kg, po administered twice a day; format: functional; further: reference of the scale not given here
[17] = Induction of anti-CD3 antibodies-stimulated human CD8+ T cell activation in immunocompetent mouse assessed fold increase in CD25 expression at 90 mg/kg, ip administered thrice a day; format: functional; further: reference of the scale not given here
[18] = Induction of anti-CD3 antibodies-stimulated human CD8+ T cell activation in immunocompetent mouse assessed fold increase in CD25 expression at 90 mg/kg, po administered twice a day; format: functional; further: reference of the scale not given here
[19] = Induction of anti-CD3 antibodies-stimulated human CD8+ T cell activation in immunocompetent mouse assessed fold increase in CD25 expression at 135 mg/kg, po administered twice a day; format: functional; further: reference of the scale not given here
[20] = Induction of anti-CD3 antibodies-stimulated human CD8+ T cell activation in immunocompetent mouse assessed fold increase in CD25 expression at 180 mg/kg, po administered twice a day; format: functional; further: reference of the scale not given here
[21] = Induction of activation of human CD56+ CD3- NK cells co-cultured with human K562 cells in 5:1 ratio and assessed as increase in IFN-gamma secretion at 10 uM measured by ELISA assay; format: functional, Natural killer cell
[22] = Induction of activation of human CD56+ CD3- NK cells co-cultured with human K562 cells in 5:1 ratio and assessed as increase in IFN-gamma secretion at 1 uM measured by ELISA assay; format: functional, Natural killer cell
[23] = Induction of activation of human CD56+ CD3- NK cells co-cultured with human K562 cells in 1:1 ratio and assessed as increase in IFN-gamma secretion at 10 uM measured by ELISA assay; format: functional, Natural killer cell
[24] = Induction of activation of human CD56+ CD3- NK cells co-cultured with human K562 cells in 1:1 ratio and assessed as increase in IFN-gamma secretion at 1 uM measured by ELISA assay; format: functional, Natural killer cell
[25] = Induction of activation of human CD56+ CD3- NK cells co-cultured with human K562 cells in 5:1 ratio and assessed as increase in TNF-alpha secretion at 10 uM measured by ELISA assay; format: functional, Natural killer cell
[26] = Induction of activation of human CD56+ CD3- NK cells co-cultured with human K562 cells in 5:1 ratio and assessed as increase in TNF-alpha secretion at 1 uM measured by ELISA assay; format: functional, Natural killer cell
[27] = Induction of activation of human CD56+ CD3- NK cells co-cultured with human K562 cells in 1:1 ratio and assessed as increase in TNF-alpha secretion at 10 uM measured by ELISA assay; format: functional, Natural killer cell
[28] = Induction of activation of human CD56+ CD3- NK cells co-cultured with human K562 cells in 1:1 ratio and assessed as increase in TNF-alpha secretion at 1 uM measured by ELISA assay; format: functional, Natural killer cell
[29] = Induction of activation of human CD56+ CD3- NK cells co-cultured with human K562 cells in 5:1 ratio and assessed as increase in MIP1beta secretion at 10 uM measured by ELISA assay; format: functional, Natural killer cell
[30] = Induction of activation of human CD56+ CD3- NK cells co-cultured with human K562 cells in 5:1 ratio and assessed as increase in MIP1beta secretion at 1 uM measured by ELISA assay; format: functional, Natural killer cell
[31] = Induction of activation of human CD56+ CD3- NK cells co-cultured with human K562 cells in 1:1 ratio and assessed as increase in MIP1beta secretion at 10 uM measured by ELISA assay; format: functional, Natural killer cell
[32] = Induction of activation of human CD56+ CD3- NK cells co-cultured with human K562 cells in 1:1 ratio and assessed as increase in MIP1beta secretion at 1 uM measured by ELISA assay; format: functional, Natural killer cell
[33] = target: T1, E3 ubiquitin-protein ligase CBL-B; assay: Inhibition of N-terminal Avi-tagged human CBL-B (36 to 427 residues) incubated with 30 nM Src kinase for 1.5 hrs followed by incubation with fluorescently labeled UbcH5B-Ub for 1 hr and measured by TR-FRET assay

T1 sequence (Q13191 whole entry, the tested form may be a part): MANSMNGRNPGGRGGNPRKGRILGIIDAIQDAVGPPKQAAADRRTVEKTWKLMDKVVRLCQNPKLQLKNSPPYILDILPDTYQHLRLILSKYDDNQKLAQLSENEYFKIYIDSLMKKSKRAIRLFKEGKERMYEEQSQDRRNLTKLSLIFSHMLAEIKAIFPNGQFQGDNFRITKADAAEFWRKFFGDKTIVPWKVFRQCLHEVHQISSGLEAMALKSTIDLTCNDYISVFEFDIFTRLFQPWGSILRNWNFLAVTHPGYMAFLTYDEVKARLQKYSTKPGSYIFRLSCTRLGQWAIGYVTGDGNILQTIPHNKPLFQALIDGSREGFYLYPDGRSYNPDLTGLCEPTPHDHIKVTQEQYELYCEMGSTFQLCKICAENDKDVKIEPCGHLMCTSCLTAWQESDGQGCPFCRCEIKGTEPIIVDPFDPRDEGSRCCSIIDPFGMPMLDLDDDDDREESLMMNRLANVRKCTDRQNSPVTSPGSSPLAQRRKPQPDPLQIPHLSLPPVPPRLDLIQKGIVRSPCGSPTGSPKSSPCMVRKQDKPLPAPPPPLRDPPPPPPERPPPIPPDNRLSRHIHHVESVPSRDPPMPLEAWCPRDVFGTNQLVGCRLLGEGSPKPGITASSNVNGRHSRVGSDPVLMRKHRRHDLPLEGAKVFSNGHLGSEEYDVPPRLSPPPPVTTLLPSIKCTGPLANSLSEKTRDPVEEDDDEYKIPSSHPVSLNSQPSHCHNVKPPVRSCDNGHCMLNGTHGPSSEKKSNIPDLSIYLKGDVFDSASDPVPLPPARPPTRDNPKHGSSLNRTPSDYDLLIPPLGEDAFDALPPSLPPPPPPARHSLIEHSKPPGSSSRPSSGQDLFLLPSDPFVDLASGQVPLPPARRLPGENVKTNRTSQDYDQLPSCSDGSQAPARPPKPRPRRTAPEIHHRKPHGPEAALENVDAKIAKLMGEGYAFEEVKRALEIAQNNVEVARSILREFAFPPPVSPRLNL

SMILES	fold change (FC) [3]	fold change (FC) [4]	fold change (FC) [5]	fold change (FC) [6]	fold change (FC) [7]	fold change (FC) [8]	fold change (FC) [9]	fold change (FC) [10]	fold change (FC) [11]	fold change (FC) [12]	fold change (FC) [21]	fold change (FC) [22]	fold change (FC) [23]	fold change (FC) [24]	fold change (FC) [25]	fold change (FC) [26]	fold change (FC) [27]	fold change (FC) [28]	fold change (FC) [29]	fold change (FC) [30]	further results
Cn1cnnc1C(F)(F)[C@](C)(F)c1cccc(N2Cc3c(cc(CN4CCC(F)(F)C4)cc3C(F)(F)F)C2=O)c1	>=7.5	2.51	1.01	>=0.201	0.101	1.31	1.01	1.01	>=1.001	0.801	>=5	1.01	>=5	1.01	2.01	1.01	2.01	1.01	2.01	1.01	IC50 [1]: < 100 nM; Kd [2]: < 100 nM; fold change (FC) [13]: 1; fold change (FC) [14]: 1; fold change (FC) [15]: 1; fold change (FC) [16]: 1; fold change (FC) [17]: <1; fold change (FC) [18]: <1; fold change (FC) [19]: <1; fold change (FC) [20]: <1; fold change (FC) [31]: 2.01; fold change (FC) [32]: 1.01
C[C@H](Cc1nncn1C)c1cccc(NC(=O)c2cc(C(=O)N3CC[C@H](O)C3)cc(C(F)(F)F)n2)c1	>=7.5	>=7.5	2.51	>=0.201	>=0.201	>=1.76	1.51	1.31	>=1.001	>=1.001	2.01	1.01	2.01	1.01	2.01	1.01	2.01	1.01	2.01	1.01	IC50 [1]: < 100 nM; Kd [2]: < 100 nM; fold change (FC) [31]: 2.01; fold change (FC) [32]: 1.01
Cn1cnnc1C(F)(F)[C@](C)(F)c1cccc(N2Cc3c(cccc3C(F)(F)F)C2=O)c1	2.51	1.01	1.01	>=0.201	0.151	1.01	1.01	1.01	>=1.001	0.601	1.01	<=1	2.01	1.01	<=1	<=1	1.01	<=1	<=1	<=1	fold change (FC) [31]: <=1; fold change (FC) [32]: <=1
Cn1cnnc1CC1(c2cccc(N3Cc4c(cc(CN5CC[C@@H](C#N)C5)cc4C(F)(F)F)C3=O)c2)COC1	>=7.5	>=7.5	5	>=0.201	0.101	1.31	1.01	1.01	>=1.001	>=1.001	–	–	–	–	–	–	–	–	–	–	IC50 [1]: < 100 nM; fold change (FC) [13]: <1; fold change (FC) [14]: <1; fold change (FC) [15]: <1; fold change (FC) [16]: <1; fold change (FC) [17]: <1; fold change (FC) [18]: <1; fold change (FC) [19]: <1; fold change (FC) [20]: <1
C[C@@H](Sc1nncn1C)c1cccc(NC(=O)c2ccc3ccccc3n2)c1	–	–	–	–	–	–	–	–	–	–	<=1	<=1	<=1	<=1	<=1	<=1	<=1	<=1	<=1	<=1	IC50 [33]: > 10000 nM; Kd [2]: ≥ 3000 nM; fold change (FC) [31]: <=1; fold change (FC) [32]: 1.01
